Drawing on patent US9580449B2, “Compositions and methods for the production of pyrimidine and pyridine compounds with BTK inhibitory activity” (Merck Patent GmbH, priority 2011, dated 2017), this text covers IC50 for twelve molecules.

Chain of full-length human BTK (Q06187 whole entry): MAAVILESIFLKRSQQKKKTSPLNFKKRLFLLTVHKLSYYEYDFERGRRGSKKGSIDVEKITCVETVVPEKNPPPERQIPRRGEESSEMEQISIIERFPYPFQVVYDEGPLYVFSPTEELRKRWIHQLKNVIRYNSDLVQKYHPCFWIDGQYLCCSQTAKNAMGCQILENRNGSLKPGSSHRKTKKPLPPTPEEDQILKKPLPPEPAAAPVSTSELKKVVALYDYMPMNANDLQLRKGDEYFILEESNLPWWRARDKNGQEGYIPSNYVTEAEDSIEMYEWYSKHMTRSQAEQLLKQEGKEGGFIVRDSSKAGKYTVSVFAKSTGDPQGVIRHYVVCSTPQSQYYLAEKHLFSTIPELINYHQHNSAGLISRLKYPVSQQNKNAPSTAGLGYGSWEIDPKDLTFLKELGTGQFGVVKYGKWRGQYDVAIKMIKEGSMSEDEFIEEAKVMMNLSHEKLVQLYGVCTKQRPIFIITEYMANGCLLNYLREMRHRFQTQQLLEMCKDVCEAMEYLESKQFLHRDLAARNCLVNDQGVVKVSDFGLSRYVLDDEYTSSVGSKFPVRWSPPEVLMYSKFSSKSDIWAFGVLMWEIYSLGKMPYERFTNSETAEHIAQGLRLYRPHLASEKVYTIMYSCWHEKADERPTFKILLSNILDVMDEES

The experiment addresses full-length human BTK (Homo sapiens (Human), UniProt Q06187). The experiment in a line: BTK IC50 enzyme assay (microfluidic off-chip mobility shift kinase assay). In kind it is biochemical. Particulars: incubated for 90 min. at 27 C; read-out: Time Dependent BTK Enzyme Assay IC50. The method in brief: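 Off-chip microfluidic mobility shift assay on full-length human BTK; substrate-to-product conversion measured by charge/mass separation of phosphorylated peptide after reaction stop.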
One may read the IC50 as the concentration needed to halve the response being measured. As for `CC#CC(=O)N1CC[C@@H](CNc2ncnc(N)c2-c2ccc(Oc3ccccc3)cc2)[C@H](O)C1` [A215, 1-((3S,4S)-4-(((6-amino-5-(4-phenoxyphenyl)pyrimidin-4-yl)amino)methyl)-3-hydroxypiperidin-1-yl)but-2-yn-1-one], the half-inhibitory concentration (IC50) was below 100 nM. Turning to `C=CC(=O)N1CCC(CNc2ncnc(N)c2-c2ccc(Oc3ccccc3)cc2)(C(=O)O)CC1` [A216, 1-acryloyl-4-(((6-amino-5-(4-phenoxyphenyl)pyrimidin-4-yl)amino)methyl)piperidine-4-carboxylic acid], the IC50 was below 100 nM. With `CN(C)C/C=C/C(=O)N1CCC(CNc2ncnc(N)c2-c2ccc(Oc3ccccc3)cc2)(C(=O)O)CC1` [A217, (E)-4-(((6-amino-5-(4-phenoxyphenyl)pyrimidin-4-yl)amino)methyl)-1-(4-(dimethylamino)but-2-enoyl)piperidine-4-carboxylic acid], the IC50 was below 1000 nM. The figure for `Nc1ncnc(NCC2CCN(C(=O)/C=C/CN3CC(F)C3)CC2)c1-c1ccc(Oc2ccccc2)cc1` [A218, (E)-1-(4-(((6-amino-5-(4-phenoxyphenyl)pyrimidin-4-yl)amino)methyl)piperidin-1-yl)-4-(3-fluoroazetidin-1-yl)but-2-en-1-one] is below 1000 nM.

Consider `Nc1ncnc(NCC2CCN(C(=O)/C=C/CN3CC(F)(F)C3)CC2)c1-c1ccc(Oc2ccccc2)cc1` [A219, (E)-1-(4-(((6-amino-5-(4-phenoxyphenyl)pyrimidin-4-yl)amino)methyl)piperidin-1-yl)-4-(3,3-difluoroazetidin-1-yl)but-2-en-1-one], for which the concentration for half-maximal inhibition (IC50) is above 1000 nM. For the molecule `Nc1ncnc(NCC2CCN(C(=O)/C=C/CN3CCCC3)CC2)c1-c1ccc(Oc2ccccc2)cc1` [A220, (E)-1-(4-(((6-amino-5-(4-phenoxyphenyl)pyrimidin-4-yl)amino)methyl)piperidin-1-yl)-4-(pyrrolidin-1-yl)but-2-en-1-one], the IC50 was below 1000 nM. Then `C=CC(=O)N1CC2(CC(Oc3ncnc(N)c3-c3ccc(Oc4cccnc4)cc3)C2)C1` [A221, 1-(6-((6-amino-5-(4-(pyridin-3-yloxy)phenyl)pyrimidin-4-yl)oxy)-2-azaspiro[3.3]heptan-2-yl)prop-2-en-1-one], with above 1000 nM. For the molecule `Nc1ncnc(OC2CC3(C2)CN(C(=O)/C=C/CN2CC(F)C2)C3)c1-c1ccc(Oc2ccccc2)cc1` [A222, (E)-1-(6-((6-amino-5-(4-phenoxyphenyl)pyrimidin-4-yl)oxy)-2-azaspiro[3.3]heptan-2-yl)-4-(3-fluoroazetidin-1-yl)but-2-en-1-one], the IC50 is below 100 nM. As for `Nc1ncnc(OC2CC3(C2)CN(C(=O)/C=C/CN2CC(F)(F)C2)C3)c1-c1ccc(Oc2ccccc2)cc1` [A223, (E)-1-(6-((6-amino-5-(4-phenoxyphenyl)pyrimidin-4-yl)oxy)-2-azaspiro[3.3]heptan-2-yl)-4-(3,3-difluoroazetidin-1-yl)but-2-en-1-one], the 50% inhibitory concentration (IC50) is below 1000 nM. As to `CN(C)C/C=C/C(=O)N[C@H]1C[C@@H](Nc2ncnc(N)c2-c2ccc(Oc3ccccc3)cc2)C1` [A224, (E)-N-(1,3-cis-3-((6-amino-5-(4-phenoxyphenyl)pyrimidin-4-yl)amino)cyclobutyl)-4-(dimethylamino)but-2-enamide], the 50% inhibitory concentration (IC50) is below 100 nM.

Regarding `C=CC(=O)N1CCC(F)(CNc2ncnc(N)c2-c2ccc(Oc3ccccc3)cc2)CC1` [A225, 1-(4-(((6-amino-5-(4-phenoxyphenyl)pyrimidin-4-yl)amino)methyl)-4-fluoropiperidin-1-yl)prop-2-en-1-one], the IC50 is below 100 nM. The figure for `CN(C)C/C=C/C(=O)N1CCC2(CC(Nc3ncnc(N)c3-c3ccc(Oc4ccccc4)cc3)C2)C1` (stereo not drawn) [A226, (E)-1-(2-((6-amino-5-(4-phenoxyphenyl)pyrimidin-4-yl)amino)-6-azaspiro[3.4]octan-6-yl)-4-(dimethylamino)but-2-en-1-one] is below 1000 nM.
